What was measured:
[1] = tested on: Z-AAT globules; assay: PAS-D staining and digital quantitation of Z-AAT globules in PiZ mouse liver; type: in vivo, human (expressed in PiZ mice); conditions: for area of the liver covered with globules reduced / smaller globules: 6 month old female PiZ mice, single IV 8 mg/kg + 8 mg/kg MLP delivery polymer
Description: AAT RNAi agent was administered to PiZ mice. Each mouse received a biweekly administration of an intravenous (IV) dose of 8 mg/kg AAT RNAi agent with 8 mg/kg of MLP delivery polymer for 8 weeks. Mice were bled weekly to monitor hAAT levels in serum and were sacrificed on day 57 after administration of AAT RNAi agent with MLP delivery polymer. Liver samples were harvested and fixed in 10% neutral-buffered formalin and embedded in paraffin. Inflammatory infiltration was assessed by H&E staining. […] PiZ mice injected biweekly with saline had significant globule accumulation as well as inflammatory infiltration around damaged or dead hepatocytes. Aggregation of Z-hAAT was visualized by performing diastase-resistant periodic acid Schiff (PAS-D) staining on liver sections. Diastase digestion of glycogen prior to performing a PAS stain allows positive staining of Z-AAT protein accumulation, or “globules”. […] The number of globules, the size of the globules and the area of the liver covered by globules was digitally quantitated from liver specimens stained with PAS-D. Mice treated with AAT RNAi agent had 85% fewer globules, 85% smaller globules, and 96% less area of the liver covered with globules than saline-injected controls (FIG. 3).
Human AAT protein levels in serum were monitored for 29 days. At the indicated times, blood samples were collected and assayed for hAAT by ELISA. Day 1 samples were collected prior to trigger administration. For mRNA analysis, 3-4 mice were euthanized at each of days 3, 8, 15, 22, and 29. For euthanized mice, cardiac stick were performed for serum isolation for AAT ELISA (200 μl serum). Half of the left lateral liver lobe was collected and snap-freeze in liquid nitrogen for RNA isolation. The remainder of the left lobes were embedded into paraffin blocks for PAS-D staining with hematoxylin as counter-stain. Serum hAAT levels in mice given AAT Duplex Pair SEQ ID NO: 5/6 were 95% reduced on day 8 and remained reduced to day 29, at which time they were 79% reduced. Mice given AAT Duplex Pair SEQ ID NO: 5/6 were euthanized at either day 3, 8, 15, 22 or 29. Mice given saline or Luciferase siRNA control (SEQ ID 7/8) were euthanized on day 29. Levels of hAAT mRNA in the livers were measured by RT-qPCR. The hAAT mRNA in mice given AAT Duplex Pair SEQ ID NO: 5/6 was reduced by 97% on day 3 and remained reduced on day 29, at which time levels were 56% reduced. The size of the globules and the area of the liver covered by globules was digitally quantitated from liver specimens stained with PAS-D. Duplex Pair SEQ ID NO: 5/6 treated mice had 70% smaller globules at day 15 and 62% smaller globules at day 29. The area of the liver covered with globules was 83% reduced on day 15 and 72% reduced on day 29 (FIG. 5).

[2] = tested on: Z-hAAT; assay: Semi-quantitative Western blot of soluble (monomer) and insoluble (polymer) Z-hAAT in PiZ mouse liver; type: in vivo, human (expressed in PiZ mice)
Description: A modified western blot protocol was used to separate the soluble and insoluble Z-hAAT fractions under non-denaturing conditions as previously described (Mueller et al. Molecular Therapy 2012).
PiZ mice treated biweekly with 8 mg/kg AAT RNAi agent for 32 weeks were compared with mice at start of study (baseline) and control mice injected for 32 weeks with saline vehicle. Monomeric and polymeric Z-hAAT protein in the livers of these mice were compared by semi-quantitative Western blotting (FIG. 7). […] Monomeric Z-AAT was reduced by 90% and polymeric Z-AAT was reduced by 48% in the AAT RNAi agent treated mice (p<0.0001).
One animal from each of Groups 2, 3, and 4 died prior to completion of the study. After sacrifice, monomeric and polymeric Z-hAAT protein in the livers of these mice were compared by semi-quantitative Western blotting over a course of 3 separate runs. Western blot Run 1 included six mice from Group 1, four mice from Group 2, and five mice from Group 4. Western blot Run 2 includes three mice from Group 1, six mice from Group 3 and 5 mice from Group 5. Western blot Run 3 includes three mice from Group 1, 2 mice from Group 4, 2 mice from Group 5, 7 mice from Group 6.

[3] = PiZ mice, four biweekly IV doses 8 mg/kg with 8 mg/kg MLP delivery polymer over 8 weeks, PAS-D
[4] = Western blot Run 1, Group 4 (n = 5): male PiZ mice, 8 mg/kg + 4 mg/kg MLP, 20 × q2w, euthanized Week 39
[5] = male PiZ mice liver, biweekly 8 mg/kg (with MLP) for 32 weeks, p<0.0001

Duplex Pair SEQ ID NO: 5/6: double-stranded AAT RNAi agent: modified antisense strand SEQ ID NO: 5 annealed to Chol-TEG sense strand SEQ ID NO: 6 (antisense TGGAACUUGGUGAUGAUAUTT; sense UAUAUAUCAUCACCAAGUUCCAT; Chol-TEG on sense strand; chemical modifications; antisense strand of dsRNA; modified_base 7 /mod_base = “2′-3′ seco corresponding nucleotide”; modified_base 2,4,6,8,10,12,14,16,18 /mod_base = “2′-deoxy-2′-fluoro corresponding nucleoside”; modified_base 3,5,9,11,13,15,17,19 /mod_base = “2′-O-methyl corresponding nucleoside”; modified_base 21 /mod_base = “5′-phosphorothioate corresponding nucleotide”; sense strand of dsRNA; modified_base 2 /mod_base = “2′-hydroxy corresponding nucleoside”; modified_base 4,6,8,10,12,14,16,18,20,22 /mod_base = “2′-deoxy-2′-fluoro corresponding nucleoside”; …)
area of the liver covered with globules reduced ([1]; day 15): 83% | smaller globules ([1]; day 15): 70% | area of the liver covered with globules reduced ([1]; day 29): 72% | smaller globules ([1]; day 29): 62% | fewer globules (number of globules) than saline-injected controls [1, 3]: 85% | less area of the liver covered with globules than saline-injected controls [1, 3]: 96% | smaller globules (size of the globules) than saline-injected controls [1, 3]: 85% | Z-hAAT monomeric protein, Average (Standard deviation) [2, 4]: 71.4 (15.6) | Z-hAAT monomeric protein, Average Normalized to Baseline (Group 1) [2, 4]: 0.126 | Z-hAAT monomeric protein, Average Normalized to Saline (Group 2) [2, 4]: 0.152 | Z-hAAT polymeric protein, Average (Standard deviation) [2, 4]: 1809.1 (932.5) | Z-hAAT polymeric protein, Average Normalized to Baseline (Group 1) [2, 4]: 0.419 | Z-hAAT polymeric protein, Average Normalized to Saline (Group 2) [2, 4]: 0.238 | Z-AAT polymer burden and diseased liver morphology ([2]; male PiZ mice 11-17 weeks old, biweekly 4, 8 or 12 mg/kg with MLP delivery polymer (2:1) for 16, 24 or 32-33 weeks): a reduction in the Z-AAT polymer burden and a reduction in the diseased liver morphology | Monomeric Z-AAT reduced [2, 5]: 90% | polymeric Z-AAT reduced [2, 5]: 48%

Reference: patent publication US20190071670A1, “Methods Of Treatment For Alpha-1 Antitrypsin Deficiency” (Arrowhead Pharmaceuticals, Inc., priority 2016, published 2019)
